Some results are limits rather than exact numbers.

The target in the test is T1, GlyT1 (Homo sapiens, UniProt P48067).
T1 construct: expressed in transfected cells
T1 sequence (P48067 1-706): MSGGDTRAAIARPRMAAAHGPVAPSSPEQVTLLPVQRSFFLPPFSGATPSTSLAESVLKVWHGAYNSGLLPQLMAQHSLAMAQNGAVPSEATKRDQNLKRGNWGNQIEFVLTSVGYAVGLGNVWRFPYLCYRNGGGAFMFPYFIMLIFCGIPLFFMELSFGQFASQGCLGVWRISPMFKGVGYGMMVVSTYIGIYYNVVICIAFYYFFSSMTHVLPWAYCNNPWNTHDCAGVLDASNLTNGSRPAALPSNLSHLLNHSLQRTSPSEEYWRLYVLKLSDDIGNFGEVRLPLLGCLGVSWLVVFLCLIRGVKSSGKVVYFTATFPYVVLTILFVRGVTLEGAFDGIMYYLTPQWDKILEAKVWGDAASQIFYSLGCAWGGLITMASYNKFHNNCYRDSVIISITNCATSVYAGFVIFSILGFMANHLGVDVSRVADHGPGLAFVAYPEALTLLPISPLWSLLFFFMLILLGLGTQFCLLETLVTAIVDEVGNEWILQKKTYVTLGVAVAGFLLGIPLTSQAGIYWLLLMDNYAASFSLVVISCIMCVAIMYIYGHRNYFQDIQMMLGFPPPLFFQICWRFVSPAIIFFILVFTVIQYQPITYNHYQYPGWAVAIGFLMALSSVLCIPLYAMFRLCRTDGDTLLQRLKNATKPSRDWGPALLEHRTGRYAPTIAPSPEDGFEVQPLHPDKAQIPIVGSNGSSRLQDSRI
The test can be described thus: Glycine Transporter 1 (GlyT1) uptake assay, scintillation proximity assay of [14C]-glycine uptake. In kind it is cell-based. As to conditions: SPA, four parameter logistic fit, read-out: GlyT1 (pIC50) (converted). An outline of the steps: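 IC50 values derive from four-parameter logistic curves fitted to dose-response data. Uptake of [14C]-glycine measured in scintillation proximity format.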
On the technique in general: Scintillation proximity formats need no separation of bound from free tracer.
For the molecule `CS(=O)(=O)c1ccc(-c2cncc(F)c2)c(C(=O)N2Cc3cn(-c4ccc(F)cn4)nc3C2)c1` [Example 548, 5-Fluoro-2-{5-[2-(5-fluoropyridin-3-yl)-5-methanesulfonylbenzoyl]-2H 4H 5H 6H-pyrrolo[3,4-c]pyrazol-2-yl}pyridine], the IC50 was 1000 to 10000 nM.
With `Cc1cncc(-c2ccc(S(C)(=O)=O)cc2C(=O)N2Cc3cn(-c4ccc(F)cn4)nc3C2)c1` [Example 549, 5-Fluoro-2-{5-[5-methanesulfonyl-2-(5-methylpyridin-3-yl)benzoyl]-2H 4H 5H 6H-pyrrolo[3,4-c]pyrazol-2-yl}pyridine] the figure was below 100 nM; with `N#Cc1ccc(-c2ccccc2F)c(C(=O)N2Cc3cn(-c4cncc(F)c4)nc3C2)c1` [Example 550, 4-(2-Fluorophenyl)-3-[2-(5-fluoropyridin-3-yl)-2H 4H 5H 6H-pyrrolo[3,4-c]pyrazole-5-carbonyl]benzonitrile], 1000 to 10000 nM.
With `N#Cc1ccc(-c2cncc(F)c2)c(C(=O)N2Cc3cn(-c4cncc(F)c4)nc3C2)c1` [Example 552, 4-(5-Fluoropyridin-3-yl)-3-[2-(5-fluoropyridin-3-yl)-2H 4H 5H 6H-pyrrolo[3,4-c]pyrazole-5-carbonyl]benzonitrile] the figure was 100 to 1000 nM.
With `N#Cc1ccc(-c2cccnc2)c(C(=O)N2Cc3cn(-c4cncc(F)c4)nc3C2)c1` [Example 553] the figure was 100 to 1000 nM.
Take `Cc1cc(-n2cc3c(n2)CN(C(=O)c2cc(C#N)ccc2-c2ccccc2F)C3)ccn1` [Example 554, 4-(2-Fluorophenyl)-3-[2-(2-methylpyridin-4-yl)-2H 4H 5H 6H-pyrrolo[3,4-c]pyrazole-5-carbonyl]benzonitrile]: the IC50 was 1000 to 10000 nM.
With `CS(=O)(=O)c1ccc(-c2cccnc2)c(C(=O)N2Cc3cn(-c4ccccc4F)nc3C2)c1` [Example 555, (2-(2-Fluorophenyl)pyrrolo[3,4-c]pyrazol-5(2H,4H,6H)-yl)(5-(methylsulfonyl)-2-(pyridin-3-yl)phenyl)methanone] the figure was 100 to 1000 nM; with `Cc1cc(-n2cc3c(n2)CN(C(=O)c2cc(C#N)ccc2-c2cncc(F)c2)C3)ccn1` [Example 556, 4-(5-Fluoropyridin-3-yl)-3-[2-(2-methylpyridin-4-yl)-2H 4H 5H 6H-pyrrolo[3,4-c]pyrazole-5-carbonyl]benzonitrile], below 100 nM; with `N#Cc1ccc(-c2cccc(F)c2)c(C(=O)N2Cc3cn(C4CCOCC4)nc3C2)c1` [Example 557, 4-(3-Fluorophenyl)-3-[2-(oxan-4-yl)-2H 4H 5H 6H-pyrrolo[3,4-c]pyrazole-5-carbonyl]benzonitrile], 100 to 1000 nM.
With `Cc1cccc(-c2ccc(C#N)cc2C(=O)N2Cc3cn(C4CCOCC4)nc3C2)c1` [Example 558, 4-(3-Methylphenyl)-3-[2-(oxan-4-yl)-2H 4H 5H 6H-pyrrolo[3,4-c]pyrazole-5-carbonyl]benzonitrile] the figure was above 10000 nM; with `CS(=O)(=O)c1ccc(-c2ccccc2F)c(C(=O)N2Cc3cn(-c4ccccc4F)nc3C2)c1` [Example 559, 2-(2-Fluorophenyl)-5-[2-(2-fluorophenyl)-5-methanesulfonylbenzoyl]-2H 4H 5H 6H-pyrrolo[3,4-c]pyrazole], below 100 nM.
Take `CS(=O)(=O)c1ccc(-c2cccc(F)c2)c(C(=O)N2Cc3cn(-c4ccccc4F)nc3C2)c1` [Example 560, 2-(2-Fluorophenyl)-5-[2-(3-fluorophenyl)-5-methanesulfonylbenzoyl]-2H 4H 5H 6H-pyrrolo[3,4-c]pyrazole]: the IC50 was below 100 nM.
Consider `CS(=O)(=O)c1ccc(-c2cncc(F)c2)c(C(=O)N2Cc3cn(-c4ccccc4F)nc3C2)c1` [Example 561, 3-Fluoro-5-{2-[2-(2-fluorophenyl)-2H 4H 5H 6H-pyrrolo[3,4-c]pyrazole-5-carbonyl]-4-methanesulfonylphenyl}pyridine], for which the IC50 was below 100 nM.
With `Cc1cc(-n2cc3c(n2)CN(C(=O)c2cc(C#N)ccc2-c2cc(F)cc(F)c2)C3)ccn1` [Example 562, 4-(3 5-Difluorophenyl)-3-[2-(2-methylpyridin-4-yl)-2H 4H 5H 6H-pyrrolo[3,4-c]pyrazole-5-carbonyl]benzonitrile] the figure was 100 to 1000 nM.
With `CS(=O)(=O)c1ccc(-c2cc(F)cc(F)c2)c(C(=O)N2Cc3cn(-c4cncc(F)c4)nc3C2)c1` [Example 563, 3-{5-[2-(3 5-Difluorophenyl)-5-methanesulfonylbenzoyl]-2H 4H 5H 6H-pyrrolo[3,4-c]pyrazol-2-yl}-5-fluoropyridine] the figure was below 100 nM; with `Cc1cccc(-c2ccc(C#N)cc2C(=O)N2Cc3cn(-c4ccnc(C)c4)nc3C2)c1` [Example 564, 4-(3-Methylphenyl)-3-[2-(2-methylpyridin-4-yl)-2H 4H 5H 6H-pyrrolo[3,4-c]pyrazole-5-carbonyl]benzonitrile], 1000 to 10000 nM; with `Cc1cc(-n2cc3c(n2)CN(C(=O)c2cc(C#N)ccc2-c2cccc(C(F)(F)F)c2)C3)ccn1` [Example 565, 3-[2-(2-Methylpyridin-4-yl)-2H 4H 5H 6H-pyrrolo[3,4-c]pyrazole-5-carbonyl]-4-[3-(trifluoromethyl)phenyl]benzonitrile], 1000 to 10000 nM.
Take `CS(=O)(=O)c1ccc(-c2ccccc2)c(C(=O)N2Cc3cn(-c4ccc(F)cn4)nc3C2)c1` [Example 566, 5-Fluoro-2-[5-(5-methanesulfonyl-2-phenylbenzoyl)-2H 4H 5H 6H-pyrrolo[3,4-c]pyrazol-2-yl]pyridine]: the IC50 is below 100 nM.
For the molecule `CCS(=O)(=O)c1ccc(-c2ccccc2)c(C(=O)N2Cc3cn(-c4ccnc(C)c4)nc3C2)c1` [Example 567, 4-{5-[5-(Ethanesulfonyl)-2-phenylbenzoyl]-2H 4H 5H 6H-pyrrolo[3,4-c]pyrazol-2-yl}-2-methylpyridine], the IC50 is below 100 nM.
With `CCS(=O)(=O)c1ccc(-c2cccc(F)c2)c(C(=O)N2Cc3cn(-c4ccnc(C)c4)nc3C2)c1` [Example 568] the figure was below 100 nM; with `CCS(=O)(=O)c1ccc(-c2cc(F)cc(F)c2)c(C(=O)N2Cc3cn(-c4ccnc(C)c4)nc3C2)c1` [Example 569, 4-{5-[2-(3 5-Difluorophenyl)-5-(ethanesulfonyl)benzoyl]-2H 4H 5H 6H-pyrrolo[3,4-c]pyrazol-2-yl}-2-methylpyridine], below 100 nM.
With `CCS(=O)(=O)c1ccc(-c2ccccc2)c(C(=O)N2Cc3cn(-c4cncc(F)c4)nc3C2)c1` [Example 570, 3-{5[5-(Ethanesulfonyl)-2-phenylbenzoyl]-2H 4H 5H 6H-pyrrolo[3,4-c]pyrazol-2-yl}-5-fluoropyridine], the IC50 is below 100 nM.
With `CCS(=O)(=O)c1ccc(-c2cccc(F)c2)c(C(=O)N2Cc3cn(-c4cncc(F)c4)nc3C2)c1` [Example 571] the figure was below 100 nM; with `CCS(=O)(=O)c1ccc(-c2cc(F)cc(F)c2)c(C(=O)N2Cc3cn(-c4cncc(F)c4)nc3C2)c1` [Example 572, 3-{5-[2-(3 5-Difluorophenyl)-5-(ethanesulfonyl)benzoyl]-2H 4H 5H 6H-pyrrolo[3,4-c]pyrazol-2-yl}-5-fluoropyridine], 100 to 1000 nM; with `CC(Oc1ccc(S(C)(=O)=O)cc1C(=O)N1CCc2n[nH]c(-c3ccccc3)c2C1)C(F)(F)F` (centres unmarked) [Example 573, 5-{5-Methanesulfonyl-2-[(1 1 1-trifluoropropan-2-yl)oxy]benzoyl}-3-phenyl-2H 4H 5H 6H 7H-pyrazolo[4,3-c]pyridine], 1000 to 10000 nM.
For the molecule `CC(C)COc1ccc(S(C)(=O)=O)cc1C(=O)N1Cc2cn(-c3ccc(F)cc3)nc2C1` [Example 574, 2-(4-Fluorophenyl)-5-[5-methanesulfonyl-2-(2-methylpropoxy)benzoyl]-2H 4H 5H 6H-pyrrolo[3,4-c]pyrazole], the IC50 was below 100 nM.
With `COc1c(C#N)ccc(OC(C)C(F)(F)F)c1C(=O)N1CCc2c(cnn2-c2ccc(F)cc2F)C1` (centres unmarked) [Example 575, 3-[1-(2 4-Difluorophenyl)-1H 4H 5H 6H 7H-pyrazolo[4,3-c]pyridine-5-carbonyl]-2-methoxy-4-[(1 1 1-trifluoropropan-2-yl)oxy]benzonitrile] the figure was below 100 nM; with `COc1c(C#N)ccc(OC(C)C(F)(F)F)c1C(=O)N1CCc2nn(-c3ccc(F)cc3)c(C(F)(F)F)c2C1` (centres unmarked) [Example 576, 3-[2-(4-Fluorophenyl)-3-(trifluoromethyl)-2H 4H 5H 6H 7H-pyrazolo[4,3-c]pyridine-5-carbonyl]-2-methoxy-4-[(1 1 1-trifluoropropan-2-yl)oxy]benzonitrile], below 100 nM; with `COc1c(C#N)ccc(OC(C)C(F)(F)F)c1C(=O)N1CCc2c(c(C(F)(F)F)nn2-c2ccc(F)cc2)C1` (centres unmarked) [Example 577, 3-[1-(4-Fluorophenyl)-3-(trifluoromethyl)-1H 4H 5H 6H 7H-pyrazolo[4,3-c]pyridine-5-carbonyl]-2-methoxy-4-[(1 1 1-trifluoropropan-2-yl)oxy]benzonitrile], 100 to 1000 nM.

For the origin of these results see patent publication US9708334B2, “Substituted 2,4,5,6-tetrahydropyrrolo[3,4-c]pyrazole and 4,5,6,7-tetrahydro-2H-pyrazolo[4,3-c]pyridine compounds as GlyT1 inhibitors” (DART NEUROSCIENCE (CAYMAN) LTD., priority 2014, dated 2017).
